Laboratory results as given in US20220040129A1, “TREATMENT OF HYPERAMMONEMIA IN PATIENTS WITH RENAL INSUFFICIENCY” (RECORDATI S.p.A., priority 2019, published 2022).
Where two headings read alike, the source gives them in different places.

Assay: CARIV-A-001 Part B: cross-over IV infusion over 2 hours vs oral tablet 100 mg/kg in healthy subjects
Format: in vivo, human
Parameters: CL, Max / CL, Min: unit not given here
Conditions: for AUCinf, Max / AUCinf, Min / aucL, Max / aucL, Min: in ng·h/mL; for AUC(0-inf) / clearance / Cmax / half-life / CL/F / bioavailability / AUC(0-t) / AUC: plasma; for AUC: read-out: aucL, Median
Method: The levels of CGA in plasma and urine were analysed using a fully validated method, which included LC-MS/MS analysis. The PK data were analysed based on a non-compartmental model. A model-based approach was implemented for the characterization of the PK properties of the IV formulation in order to estimate the level of PK exposure after different doses administered with different duration of infusion. The model outcomes provided rationales for supporting decision-making through the dose escalation process. The PK parameters were determined using SAS (version 9.3), and modelling of the PK data was performed using NONMEM (version 7.3, ICON Solutions). PART A: Mono-Centre, Randomized, Successive Groups, Double-Blind, Placebo-Controlled Study in Healthy Male and Female Subjects
Part B was a randomized, double-blind, cross-over, two-sequence study. It was conducted in 12 healthy male and female subjects.
In two treatment periods, separated by a washout of at least two weeks, subjects received a single administration of the study medication in fasting conditions, either as an IV loading dose infusion of Rec0/0491 over 2 hours (started with 6 mg/kg/h then reduced to 4.0 mg/kg/h), or an oral tablet administration of Carbaglu® (100 mg/kg).
Blood samples for PK measurements were collected at 19 timepoints for the IV administration and 17 timepoints for the oral administration. This included a sample prior to intake of the study medication and the period ranging from 20 minutes to 72 hours following the initiation of the IV infusion, and the period ranging from 30 minutes to 72 hours following oral intake. Urine was also collected for PK measurements, at the following intervals relative to the time of administration of the study medication: 0-6, 6-12, 12-24, 24-36 and 36-48 hours.
The PK analysis of Carbaglu was conducted on all subjects showing quantifiable plasma levels using standard non-compartmental approach.

[1] = both sexes, human, oral, OR, 100 mg/kg, N 12
[2] = both sexes, human, IV, 8 mg/kg, N 10
[3] = both sexes, human, IV, 12 mg/kg, N 2
[4] = dose normalized section, Reference (IV data), in h
[5] = dose normalized section, Test (oral data), in h
[6] = dose normalized, Reference (IV data)
[7] = dose normalized, Test (oral data)

NC(=O)N[C@@H](CCC(=O)O)C(=O)O [carglumic acid, N-carbamoyl-L-glutamic acid]
Absolute bioavailability F of the oral vs IV formulation, GeoMean (12 subjects): 9.57%
Equivalence of exposure, oral tablet 100 mg/kg vs IV infusion over 2 hours (90% confidence limits vs reference limits of 0.8 and 1.25): non-equivalent level of exposure
CL, Max (IV, 8 mg/kg, N 10): 0.472
CL, Min (IV, 8 mg/kg, N 10): 0.225
Cmax, Max (IV, 8 mg/kg, N 10): 11700 ng/mL
Cmax, Min (IV, 8 mg/kg, N 10): 5400 ng/mL
HL (Half-life), Max (IV, 8 mg/kg, N 10, in h): 52.95
HL (Half-life), Min (IV, 8 mg/kg, N 10, in h): 22.85
AUCinf, Max (IV, 8 mg/kg, N 10): 35564.90
AUCinf, Min (IV, 8 mg/kg, N 10): 16949.96
aucL, Max (IV, 8 mg/kg, N 10): 34579.31
aucL, Min (IV, 8 mg/kg, N 10): 15713.03
CL, Max (IV, 12 mg/kg, N 2): 0.267
CL, Min (IV, 12 mg/kg, N 2): 0.192
Cmax, Max (IV, 12 mg/kg, N 2): 23500 ng/mL
Cmax, Min (IV, 12 mg/kg, N 2): 19400 ng/mL
HL (Half-life), Max (IV, 12 mg/kg, N 2, in h): 42.59
HL (Half-life), Min (IV, 12 mg/kg, N 2, in h): 27.23
AUCinf, Max (IV, 12 mg/kg, N 2): 62628.03
AUCinf, Min (IV, 12 mg/kg, N 2): 45001.41
aucL, Max (IV, 12 mg/kg, N 2): 61017.40
aucL, Min (IV, 12 mg/kg, N 2): 43281.03
Cmax, Max (OR, 100 mg/kg, N 12): 5620 ng/mL
Cmax, Min (OR, 100 mg/kg, N 12): 1950 ng/mL
HL (Half-life), Max (OR, 100 mg/kg, N 12, in h): 35.31
HL (Half-life), Min (OR, 100 mg/kg, N 12, in h): 17.56
AUCinf, Max (OR, 100 mg/kg, N 12): 45696.37
AUCinf, Min (OR, 100 mg/kg, N 12): 21852.27
aucL, Max (OR, 100 mg/kg, N 12): 44250.17
aucL, Min (OR, 100 mg/kg, N 12): 20030.59
Percent of dose excreted in urine (after IV administration): 82%
Percent of dose excreted in urine (after oral administration): 7.5%
CL renal (both sexes, human, plasma and urine, after IV administration, read-out: Renal clearance (converted)): ~5 mL/min/kg
AUC(0-inf) (both sexes, human, iv, 8 mg/kg, IV, 8 mg/kg, N 10, read-out: AUCinf, Mean): 24500 ng·h/mL
AUC(0-inf) (both sexes, human, iv, 8 mg/kg, IV, 8 mg/kg, N 10, read-out: AUCinf, Median): 23700 ng·h/mL
clearance (both sexes, human, iv, 8 mg/kg, IV, 8 mg/kg, N 10, read-out: CL, Mean (converted)): 5.65 mL/min/kg
clearance (both sexes, human, iv, 8 mg/kg, IV, 8 mg/kg, N 10, read-out: CL, Median (converted)): 5.63 mL/min/kg
Cmax (both sexes, human, iv, 8 mg/kg, IV, 8 mg/kg, N 10, read-out: Cmax, Mean): 8610 ng/mL
Cmax (both sexes, human, iv, 8 mg/kg, IV, 8 mg/kg, N 10, read-out: Cmax, Median): 8760 ng/mL
half-life (both sexes, human, iv, 8 mg/kg, IV, 8 mg/kg, N 10, read-out: HL (Half-life), Mean (converted)): 1840 min
half-life (both sexes, human, iv, 8 mg/kg, IV, 8 mg/kg, N 10, read-out: HL (Half-life), Median (converted)): 1730 min
AUC(0-inf) (both sexes, human, iv, 12 mg/kg, IV, 12 mg/kg, N 2, read-out: AUCinf, Mean): 53800 ng·h/mL
AUC(0-inf) (both sexes, human, iv, 12 mg/kg, IV, 12 mg/kg, N 2, read-out: AUCinf, Median): 53800 ng·h/mL
clearance (both sexes, human, iv, 12 mg/kg, IV, 12 mg/kg, N 2, read-out: CL, Mean (converted)): 3.82 mL/min/kg
clearance (both sexes, human, iv, 12 mg/kg, IV, 12 mg/kg, N 2, read-out: CL, Median (converted)): 3.82 mL/min/kg
Cmax (both sexes, human, iv, 12 mg/kg, IV, 12 mg/kg, N 2, read-out: Cmax, Mean): 21400 ng/mL
Cmax (both sexes, human, iv, 12 mg/kg, IV, 12 mg/kg, N 2, read-out: Cmax, Median): 21400 ng/mL
half-life (both sexes, human, iv, 12 mg/kg, IV, 12 mg/kg, N 2, read-out: HL (Half-life), Mean (converted)): 2090 min
half-life (both sexes, human, iv, 12 mg/kg, IV, 12 mg/kg, N 2, read-out: HL (Half-life), Median (converted)): 2090 min
clearance (both sexes, human, iv, after IV administration, read-out: Total clearance (converted)): 5.17 mL/min/kg
AUC(0-inf) (both sexes, human, oral, 100 mg/kg, OR, 100 mg/kg, N 12, read-out: AUCinf, Mean): 31400 ng·h/mL
AUC(0-inf) (both sexes, human, oral, 100 mg/kg, OR, 100 mg/kg, N 12, read-out: AUCinf, Median): 30200 ng·h/mL
CL/F (both sexes, human, oral, 100 mg/kg, OR, 100 mg/kg, N 12, read-out: CL/F, Mean (converted)): 55.6 mL/min/kg
CL/F (both sexes, human, oral, 100 mg/kg, OR, 100 mg/kg, N 12, read-out: CL/F, Median (converted)): 55.2 mL/min/kg
Cmax (both sexes, human, oral, 100 mg/kg, OR, 100 mg/kg, N 12, read-out: Cmax, Mean): 3280 ng/mL
Cmax (both sexes, human, oral, 100 mg/kg, OR, 100 mg/kg, N 12, read-out: Cmax, Median): 2940 ng/mL
half-life (both sexes, human, oral, 100 mg/kg, OR, 100 mg/kg, N 12, read-out: HL (Half-life), Mean (converted)): 1480 min
half-life (both sexes, human, oral, 100 mg/kg, OR, 100 mg/kg, N 12, read-out: HL (Half-life), Median (converted)): 1420 min
bioavailability (both sexes, human, oral, 100 mg/kg, 12 subjects, read-out: Absolute bioavailability, 90% confidence intervals): 8.3 to 11%
AUC(0-t) [1]: 29800 ng·h/mL
AUC [1]: 29100 ng·h/mL
bioavailability (both sexes, human, po, 100 mg/kg, read-out: Oral bioavailability): ~10%
AUC(0-t) [2]: 22900 ng·h/mL
AUC [2]: 22000 ng·h/mL
AUC(0-t) [3]: 52100 ng·h/mL
AUC [3]: 52100 ng·h/mL
refHalf_life, Max [4]: 52.95
refHalf_life, Mean [4]: 31.351
refHalf_life, Median [4]: 28.81
refHalf_life, Min [4]: 22.85
testHalf life, Mean (dose normalized section, Test (oral data)): 24.6 h
testHalf_life, Max [5]: 35.31
testHalf_life, Median [5]: 23.71
testHalf_life, Min [5]: 17.56
refAUCinf, Max [6]: 5219
refAUCinf, Mean [6]: 3299.58
refAUCinf, Median [6]: 3162.4
refAUCinf, Min [6]: 2118.74
refAUClast, Max [6]: 5084.78
refAUClast, Mean [6]: 3105.22
refAUClast, Median [6]: 2840.05
refAUClast, Min [6]: 1964.13
refCL, Max [6]: 0.059
refCL, Mean [6]: 0.038
refCL, Median [6]: 0.04
refCL, Min [6]: 0.016
refCmax, Max [6]: 1958.33
refCmax, Mean [6]: 1195.1
refCmax, Median [6]: 1148.13
refCmax, Min [6]: 675
testAUCinf, Max [7]: 456.96
testAUCinf, Mean [7]: 314.25
testAUCinf, Min [7]: 218.52
testAUClast, Max [7]: 442.5
testAUClast, Mean [7]: 298.07
testAUClast, Min [7]: 200.31
testCL, Max [7]: 0.046
testCL, Mean [7]: 0.033
testCL, Min [7]: 0.022
testCmax, Max [7]: 56.2
testCmax, Mean [7]: 32.84
testCmax, Min [7]: 19.5
Absolute bioavailability F of the oral vs IV formulation, Mean (from dose normalized AUCinf, 12 subjects): 9.87%
Total clearance after oral administration corrected by the bioavailability value of F=9.87% (oral): 0.35 L/h/kg
